pIC50, pKi: −log10 of the molar value. Where a name gives a salt, the structure may show the parent alone. Read-outs that look alike come from different tables or passages of the source.
Experiments:
serotonin transporter = biological target: T1, serotonin transporter (Rattus norvegicus, UniProt P31652); assay: Displacement of 3H-paroxetine from male rat frontal cortical membranes (serotonin transporter affinity); type: binding; conditions: 3H-paroxetine displacement, read-out: 5-HT Transporter Affinity Ki
T1 construct: displace ^3H-paroxetine from male rat frontal cortical membranes; from tissue; host or cells: male rat frontal cortex membranes
T1 sequence (P31652 whole entry): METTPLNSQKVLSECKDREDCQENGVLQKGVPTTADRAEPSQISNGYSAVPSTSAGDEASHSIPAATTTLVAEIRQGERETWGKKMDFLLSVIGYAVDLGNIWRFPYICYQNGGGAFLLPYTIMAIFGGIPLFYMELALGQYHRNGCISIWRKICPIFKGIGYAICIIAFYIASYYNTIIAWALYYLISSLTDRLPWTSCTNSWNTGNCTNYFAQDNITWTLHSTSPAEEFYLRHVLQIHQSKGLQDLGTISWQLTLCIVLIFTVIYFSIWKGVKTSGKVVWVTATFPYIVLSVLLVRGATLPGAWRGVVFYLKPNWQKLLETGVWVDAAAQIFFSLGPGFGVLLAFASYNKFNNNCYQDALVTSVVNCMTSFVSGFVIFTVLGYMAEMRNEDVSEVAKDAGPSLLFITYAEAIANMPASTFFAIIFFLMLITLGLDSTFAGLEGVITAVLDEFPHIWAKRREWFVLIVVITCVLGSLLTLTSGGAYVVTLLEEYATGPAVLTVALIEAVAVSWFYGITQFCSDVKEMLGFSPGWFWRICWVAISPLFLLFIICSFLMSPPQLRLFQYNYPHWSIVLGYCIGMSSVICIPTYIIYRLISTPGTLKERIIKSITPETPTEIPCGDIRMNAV
From the text: Affinity of Compounds of the Invention for the Serotonin Transporter

human 5HT1A receptors = biological target: T2, human 5HT1A receptors (Homo sapiens, UniProt P08908); assay: Displacement of [3H] 8-OH-DPAT from 5HT1A receptor, CHO cells stably transfected with human 5HT1A receptors; type: binding; conditions: [3H] 8-OH-DPAT displacement, CHO cells with human 5HT1A; read-out: 5HT1A Receptor Affinity Ki
T2 construct: expressed in transfected cells; host or cells: CHO cells
T2 sequence (P08908 1-422): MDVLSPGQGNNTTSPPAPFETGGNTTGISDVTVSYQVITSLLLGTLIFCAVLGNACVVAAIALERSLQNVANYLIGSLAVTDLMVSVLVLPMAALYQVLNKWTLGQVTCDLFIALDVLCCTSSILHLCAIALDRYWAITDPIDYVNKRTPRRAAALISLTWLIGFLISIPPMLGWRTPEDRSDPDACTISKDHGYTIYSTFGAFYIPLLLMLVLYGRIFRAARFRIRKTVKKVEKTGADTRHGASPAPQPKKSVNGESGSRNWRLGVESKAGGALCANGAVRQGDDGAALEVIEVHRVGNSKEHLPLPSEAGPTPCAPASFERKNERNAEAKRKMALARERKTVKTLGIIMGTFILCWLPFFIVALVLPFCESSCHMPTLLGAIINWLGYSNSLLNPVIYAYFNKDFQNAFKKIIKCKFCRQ
From the text: High affinity for the serotonin 5HT1A receptor was established by testing the claimed compound's ability to displace [^3H] 8-OH-DPAT (dipropylamino-tetralin) from the 5HT1A serotonin receptor following a modification of the procedure of Hall et al., J. Neurochem. 44, 1685 (1985) which utilizes CHO cells stably transfected with human 5HT1A receptors.

[1] = biological target: T3, cloned human 5HT1A receptors (Homo sapiens, UniProt P08908); assay: 35S-GTPγS binding assay, agonist/antagonist activity at 5HT1A receptors; type: biochemical
T3 construct: expressed in transfected cells
T3 sequence (P08908 1-422): T2 sequence (P08908 1-422)
Description: Determination of […] or Antagonist Activity at 5HT1A Receptors
Antagonist or antagonist activity at 5HT1A receptors was established by using a ^35S-GTPγS binding assay similar to that used by Lazareno and Birdsall (Br. J. Pharmacol. 109: 1120, 1993), in which the test compound's ability to affect the binding of ^35S-GTPγS to membranes containing cloned human 5HT1A receptors was determined. Agonists produce an increase in binding whereas antagonists produce no increase but rather reverse the effects of the standard agonist 8-OH-DPAT. The test compound's maximum inhibitory effect is represented as the Imax, while its potency is defined by the IC50. The results of the three standard experimental test procedures described in the preceding three paragraphs were as follows: […]

h-5HT1A = biological target: T4, h-5HT1A (Homo sapiens, UniProt P08908); assay: 5HT1A receptor SPA binding assay, [3H]-OH DPAT, CHO cell membranes; conditions: [3H]-OH DPAT 3 nM
T4 construct: expressed in transfected cells; host or cells: CHO cells grown in suspension in a 10 liter bioreactor
T4 sequence (P08908 1-422): T2 sequence (P08908 1-422)
Description: Determination of the Inhibitory Activity of Compounds at the Serotonin 5HT1A Receptor Subtype using Scintillation Proximity Assay (SPA) Technology
Cells: CHO cells expressing the serotonin 5HT1A receptor subtype were grown in suspension in 10 liter bioreactor and supplied as a wet cell pellet
Binding experiments are performed in a total volume of 200 μl using a 96 well microtiter plate format (Packard Optiplate). On the day of the assay, the membranes are thawed and resuspended with enough 50 mM Tris (HCI) pH 7.5, 10 mM MgCl2, 0.2 mM EDTA, 10 μM pargyline, and 0.1% ascorbate (assay buffer) to achieve a protein concentration of 800 μg/ml. To each well of the microtiter plate, 20 μl of 10× test compound in water containing 3.3% DMSO, 3 nM of [3H]-OH DPAT (Amersham, SA: 200 Ci/mmol), 80 μg cell membrane and assay buffer are combined to achieve a volume of 150 μl. Assay buffer and 10 μM cold 5-HT are substituted for the test compound in separate wells to define ‘total’ and ‘nonspecific’ bindings, respectively. The incubation period is initiated by the addition of 50 μl of 10 mg/ml PVT WGA SPA beads (RPNQ0060, Amersham GE Healthcare) resuspended in assay buffer for a final concentration of 0.5 mg/well. The plates are sealed and gently shaken at room temperature using an orbital shaker (setting 1.5) until equilibrium is achieved (2 h-overnight incubation). Radioactivity (CPM) is measured by Packard TopCount (1 min counting time/well).
Specific binding is described as the total radioactivity bound less the amount bound in the presence of 10 μM 5HT, referred to as non-specific binding (NSB). Binding in the presence of varying concentrations of test compounds is expressed as percent of specific binding in the absence of compound.
{(Bound−NSB)/(Total−NSB)}×100=% Total
Regression analysis of % bound data from ten concentrations is performed in GraphPad Prism, XL Fit or equivalent software. IC50 values are calculated using a four-parameter logistic curve fitting model and Ki values are calculated by the Cheng-Prusoff equation below: […]
where L is the nM concentration of the radioactive ligand used and the Kd is the dissociation constant of the ligand for the receptor. The Kd for [3H-OH DPAT in the SPA binding format is 3 nM. • Single dose
Percent inhibition: The displacement of […] by the test compound at h5-HT1A as determined by: [(Total DPM−compound DPM)/(Total DPM−NSB DPM)]×100. • Conc.: concentration of test compound; NBS: non-specific binding; DPM: disintegrations per min

[2] = biological target: T5, Human Serotonin Transporter (h5HT-T) (Homo sapiens, UniProt P31645); assay: biochemical
T5 sequence (P31645 whole entry): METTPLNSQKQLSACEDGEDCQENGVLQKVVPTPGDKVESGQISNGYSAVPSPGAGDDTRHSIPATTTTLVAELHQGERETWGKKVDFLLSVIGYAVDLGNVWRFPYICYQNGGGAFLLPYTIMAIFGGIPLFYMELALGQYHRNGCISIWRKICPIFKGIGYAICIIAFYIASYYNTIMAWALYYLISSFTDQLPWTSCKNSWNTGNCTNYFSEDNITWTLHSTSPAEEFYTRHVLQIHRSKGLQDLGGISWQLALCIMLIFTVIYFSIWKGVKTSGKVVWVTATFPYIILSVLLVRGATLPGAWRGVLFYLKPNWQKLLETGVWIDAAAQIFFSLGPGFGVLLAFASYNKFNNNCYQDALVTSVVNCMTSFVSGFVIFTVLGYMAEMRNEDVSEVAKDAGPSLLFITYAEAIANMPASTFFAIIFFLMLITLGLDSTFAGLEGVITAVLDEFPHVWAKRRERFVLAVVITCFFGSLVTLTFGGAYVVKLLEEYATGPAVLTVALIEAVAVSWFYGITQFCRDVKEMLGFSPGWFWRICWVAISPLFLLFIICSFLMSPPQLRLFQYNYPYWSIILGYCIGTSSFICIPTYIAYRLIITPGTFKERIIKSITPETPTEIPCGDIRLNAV
Description: (§1) MEDIA REAGENTS: Dulbecco's Modified Eagle Medium (DMEM) with High Glucose, L-Glutamine, 110 mg/L Sodium Pyruvate, Pyridoxine Hydrochloride containing: • a) 10% Fetal Bovine Serum, Heat-inactivated and Dialyzed (10,000 Mol Wt.) • b) 1% Pennicilin-streptomycin • c) 100 μg/ml Geneticin/G418 • 2. […] Immediately add 15 ml Cell Culture medium to inactivate trypsin and mix well. […] (eg. 1×T175 flask can seed 20×T175 flasks) • g) Incubate cells at 37° C., 5% CO2, in a humidified incubator. NOTE: Cells will grow to confluence within 3-4 days.
(§2) Cells are resuspended in 3 volumes of 50 mM Tris-HC1 (pH 7.4) to 1 volume of initial cell fraction • 2. Partially homogenize cells by swirling or by using transfer pipetor to make cell solution more homogenous and aliquot solution into 4 clear 50 ml polypropylene centrifuge tubes • 3. Tubes are balanced and spun down at 2,000 rpm for 10 minutes at 4° C. using the HS-4 rotor (rotor code 8) • 4. Supernatant is decanted and pellets resuspend in an additional 75 ml of 50 mM Tris-HCl (pH 7.4)→˜18 ml Tris to each of 4 tubes • 5. Spin cells again at 5, 000 rpm for minutes at 4° C. using the HS-4 rotor and decant supernatant • 6. Resuspend final pellts in appropriate volume of 50 nM Tris to yield protein concentration of ˜6 mg/ml • add 100 ml Tris to original cell suspension of 35 ml • add ˜72 ml; Tris to original cell suspension of 25 ml • 7. Add the appropriate final volume and split the cells into two/three 50 ml Falcon polypropylene tubes. Thoroughly vortex your cell suspension in these tubes to ensure homogeneity before aliquoting. • 8. Pool the samples from the 50 nl tubes into one larger flat-bottom vessel and stir constantly on ice (4° C.). • 9. While stirring, aliquot 1 ml portions out into 1.5 ml cryogenic vials. • 10. Store vials at −70° C. until subsequtn asay. Retain one aliquot for protein concentration, Kd and Bmax determination before starting experiments using new batch of cells. Proetin concentration is determined using the Lowry method.
(§3) Required buffers: • Assay buffer; 50 mM Tris HCl, 120 mM NaCl and 5 mM KCl, pH 7.4 • 2. Binding protocol: Preliminary screening assays are performed using single replicates on duplicate plates. Dose-response binding assays are performed in a single replicates on duplicate OptiPlates (Perkin Elmer) using 0.1 nM to 3 μM of test drug.
(§4) a) To each well add 10 μL of test compound, blank compound (10 μM Fluoxetine), or assay buffer (50 mM Tris HCl, 120 mM NaCl and 5 mM KCl, pH 7.4. Each well is then supplemented with 40 μL of assay buffer.
(§5) The isotope solution is also disuted in 50 mM Tris HCl, 120 mM NaCl and 5 mM KCl, pH 7.4 • c) Resuspend membrane pellet in binding buffer to achieve a solution containing 5 μg of protein in 50 μL. This will yield a final protein concentration of 5 μg/well. • d) To each well add 0.5 mg of Wheatgerm Agglutinin (WGA) SPA beads in 50 μl of 50 mM Tris HCl, 120 mM NaCl and 5 mM KCl, pH 7.4 • e) Incubate plates, while gently shaking, for at least 1 hour so as to reach equilibrium. Plates can still be read if left to incubate overnight without loss of signal. • f) Count plates on TopCount.
(§6) 3H-Citallopram binding is expressed as percent of specific binding, with IC50 and Ki VALUES DETERMINED BY nonlinear regression analysis using the Activity Base software package. Specific binding is defined as total binding observed in the presence of 10 μM fluoxetine.

[3] = biological target: T5, Human Serotonin Transporter (h5HT-T); conditions: read-out: human SERT SPA binding assay Ki
Description: as §1, §2, §3, §4, §5, §6

For Cc1ccc2c3c(ccc2n1)OC[C@H](CN1CCC(Oc2ccc4c(c2)NC(=O)CO4)CC1)O3 [Example 1, 6-[(1-{[(2S)-8-methyl-2,3-dihydro[1,4]dioxino[2,3-f]quinolin-2-yl]methyl}piperidin-4-yl)oxy]-2H-1,4-benzoxazin-3(4H)-one dihydrochloride salt], the pKi (serotonin transporter) was 8.02, the pKi (human 5HT1A receptors) was 9.59 and the pIC50 ([1]; reversal of 8-OH-DPAT effect, read-out: 5HT1A Function IC50) was 7.23. The “5HT1A Function Imax (maximum inhibitory effect)” value ([1]; value in parentheses) was 97.

Molecule Cc1ccc2c3c(ccc2n1)OC[C@H](CN1CCCC(Cc2ccc4c(c2)NC(=O)CC4)C1)O3 (stereo partly drawn) [Example 24, 7-[(1-{[(2S)-8-Methyl-2,3-dihydro[1,4]dioxino[2,3-f]quinolin-2-yl]methyl}piperidin-3-yl)methyl]-3,4-dihydroquinolin-2(1H)-one] has a pKi (h-5HT1A) of 8.63 and a pKi [2] of 8.01.

Molecule Cc1ccc2c3c(ccc2n1)OC[C@H](CN1CCC(Cc2ccc4c(c2)NC(=O)CC4)CC1)O3 [Example 20, 7-[(1-{[(2S)-8-Methyl-2,3-dihydro[1,4]dioxino[2,3-f]quinolin-2yl]methyl}piperidin-4-yl)methyl]-3,4-dihydroquinolin-2(1H)-one] has a pKi (h-5HT1A) of 8.94 and a pKi [2] of 8.23.

With Cc1ccc2c3c(ccc2n1)OC[C@H](CN1C2CCC1CC(Cc1ccc4c(c1)NC(=O)CC4)C2)O3 (stereo partly drawn) [Example 23, 7-[(8-{[(2S)-8-Methyl-2,3-dihydro[1,4]dioxino[2,3-f]quinolin-2-yl]methyl}-8-azabicyclo[3.2.1]oct-3-yl)methyl]-3,4-dihydroquinolin-2(1H)-one] the pKi (h-5HT1A) was 8.62 and the pKi [2] was 7.91.

For “8-Fluoro-6-[(1-{[(2S)-8-methyl-2,3-dihydro[1,4]dioxino[2,3-f]quinolin-2-yl]methyl}piperidin-4-yl)methyl]-2H-1,4-benzoxazin-3(4H)-one [Example 21b]”, the pKi (h-5HT1A) was 8.95 and the pKi [3] was 8.76.

Molecule Cc1ccc2c3c(ccc2n1)OC[C@H](CN1CCC[C@H](Oc2ccc4c(c2)NC(=O)CO4)C1)O3 [Example 26, 6-{[(3S)-1-{[(2S)-8-Methyl-2,3-dihydro[1,4]dioxino[2,3-f]quinolin-2-yl]methyl}piperidin-3-yl]oxy}-2H-1,4-benzoxazin-3(4H)-one] has a pKi (h-5HT1A) of 6.44 and a pKi [2] of 6.42.

Work on Cc1ccc2c3c(ccc2n1)OC[C@H](CNCCCCOc1ccc2c(c1)NC(=O)CO2)O3 [Example 6, 6-[4-({[(2S)-8-Methyl-2,3-dihydro[1,4]dioxino[2,3-f]quinolin-2-yl]methyl}amino)butoxy]-2H-1,4-benzoxazin-3(4H)-one dihydrochloride salt] yielded a pKi (serotonin transporter) of 7.92 and a pKi (human 5HT1A receptors) of 9.60.

In the case of “8-Fluoro-6-[(1-{[(2S)-8-methyl-2,3-dihydro[1,4]dioxino[2,3-f]quinolin-2-yl]methyl}piperidin-4-yl)methyl]-2H-1,4-benzoxazin-3(4H)-one [Example 21a]”, the pKi (h-5HT1A) was 7.81 and the pKi [3] was 7.17.

Cc1ccc2c3c(ccc2n1)OC[C@H](CN1CCCC(Cc2ccc4c(c2)N(C)C(=O)CO4)C1)O3 (stereo partly drawn) [Example 15, 4-Methyl-6-[(1-{[(2S)-8-methyl-2,3-dihydro[1,4]dioxino[2,3-f]quinolin-2-yl]methyl}piperidin-3-yl)methyl]-2H-1,4-benzoxazin-3(4H)-one dihydrochloride salt] was tested, and the pKi (serotonin transporter) was 7.09 and the pKi (human 5HT1A receptors) was 9.17.

Cc1ccc2c3c(ccc2n1)OC[C@H](CN1CCCC(Cc2ccc4c(c2)NC(=O)CO4)C1)O3 (stereo partly drawn) [Example 16, 6-[(1-{[(2S)-8-Methyl-2,3-dihydro[1,4]dioxino[2,3-f]quinolin-2-yl]methyl}piperidin-3-yl)methyl]-2H-1,4-benzoxazin-3(4H)-one dihydrochloride salt] gave a pKi (serotonin transporter) of 8.30 and a pKi (human 5HT1A receptors) of 9.40.

Cc1ccc2c3c(ccc2n1)OC[C@H](CN1CCC[C@@H](Oc2ccc4c(c2)NC(=O)CO4)C1)O3 [Example 25, 6-{[(3R)-1-{[(2S)-8-Methyl-2,3-dihydro[1,4]dioxino[2,3-f]quinolin-2-yl]methyl}piperidin-3-yl]oxy}-2H-1,4-benzoxazin-3(4H)-one] was tested, and the pKi (h-5HT1A) was 7.86 and the pKi [2] was 6.83.
